{
  "source": "paper PMC7069228",
  "about": "“Targeted cell imaging properties of a deep red luminescent iridium(III) complex conjugated with a c-Myc signal peptide” (Chemical Science, 2020)",
  "key": {"human fibroblast cells [1]": {"system": "human fibroblast cells", "assay": "Confocal fluorescence microscopy: cell uptake and localisation", "format": "cell-based", "conditions": "human fibroblasts", "procedure": "The non-peptide functionalised complex Ir-PYR was investigated at a range of concentrations (1, 5, 20, 50, 80, 100 μM) with respect to cell uptake, localization and bioimaging capability. Human fibroblast cells were incubated with the different concentration solutions of Ir-PYR and imaged after 18 hours using confocal fluorescence microscopy. With long wavelength excitation and emission parameters (λex = 480 nm; λem = 645 nm) compatible with the spectral properties of the complex, it was clearly evident (Fig. 2) that the deep red emission of Ir-PYR was highly amenable to confocal fluorescence microscopy.\nHuman derived skin fibroblast cells lines were obtained from the Coriell Cell Repository (GM05399, Camden, NJ). Cells were cultured as monolayers in Dulbecco's modified Eagles medium (DMEM, Sigma, UK) supplemented with 10% fetal bovine serum (FBS, PAN-Biotech, Aidenbach, Germany) and 1% L-glutamine in a humidified incubator with 5% CO2 at 37 °C. For all imaging experiments low passage cells (P10-15) were seeded in 8-well chamber slides (Thistle, IB-80826) at a density of 15 000 cells in 250 μL of media.\nStock solutions were diluted to the stated concentrations in cell culture medium for incubation with fibroblasts. The equivalent amount of DMSO (<0.5% total volume) was added to controls for comparison. For nuclear visualisation cells were counterstained for 10 minutes with Hoechst 33342 diluted in cell culture media (1 μL mL^–1, Thermo Fisher, UK). For non-live imaging, cells were fixed in cold 4% paraformaldehyde for 10 min at room temperature and rinsed with PBS. For live-cell colocalization studies, cells were incubated with Ir-PYR for 12 hours prior to counterstaining with Hoechst 33342, and either LysoTracker-green DND-26 (L7528, Thermo Fisher, UK), or CYTO-ID Autophagy detection kit 2.0 (175–0050, Enzo Life Sciences, UK), as per the manufacturer's instructions. Briefly, LysoTracker was diluted in cell culture media to a final concentration of 200 nM and left for 15 min at 37 °C. […]"}, "Human fibroblasts": {"system": "Human fibroblasts", "assay": "Resazurin cell viability / metabolic activity assay", "format": "cell-based", "procedure": "Fig. 3 Ir-PYR is cytotoxic at 20 μM and above. Human fibroblasts were incubated with various concentrations (0 or DMSO only, 5, 20, 50, 80, 100 μM) of either Ir-CMYC (A) or Ir-PYR (B) for 18 hours. Resazurin was added to cells, and after a 4 hour incubation the relative fluorescence intensity was measured (λex = 530 nm; λem = 580 nm). Ir-PYR treated cells (>20 μM) show reduced conversion of resazurin to the fluorescent resorufin indicating reduced cell viability.\nHuman derived skin fibroblast cells lines were obtained from the Coriell Cell Repository (GM05399, Camden, NJ). […]\nHuman fibroblasts were plated at 10 000 cells per well of a 96-well plate (Cellbind) and treated with the indicated concentrations of Ir-PYR, Ir-CMYC or DMSO. […] After a 4 hour incubation at 37 °C, fluorescence was determined using a Molecular Devices Spectramax Gemini EM plate reader (λex = […]; λem = 585 nm).\nHuman fibroblasts were plated at 10 000 cells per well of a 96-well plate and treated with the various concentrations of Ir-PYR, Ir-CMYC (5, 20, 80, 50, 100 μM) or the highest volume of equivalent of DMSO only. […] After a 4 hour incubation at 37 °C, fluorescence was determined using a Molecular Devices Spectramax Gemini EM plate reader (λex = 530 nm; λem = 580 nm)."}, "human fibroblast cells [2]": {"system": "human fibroblast cells", "assay": "Immunocytochemistry with cell membrane permeabilisation (retention of red emission)", "format": "cell-based", "conditions": "fluorescence microscopy imaging", "description": "To investigate whether the NLS was cleaved off Ir-CMYC prior to translocation to the nucleus, an immunoassay was trialled using an antibody raised against c-Myc."}, "[3]": {"assay": "Longer term stability in water by UV-vis absorption spectra", "format": "physicochemical", "procedure": "Our previous studies on Ir(III) complexes have shown that the use of substituted, cyclometalated quinoxaline ligands can impart red luminescence characteristics.[25] Firstly, the UV-vis absorption and emission spectral characteristics of Ir-PYR were determined. […] By inference, ligand-centred transitions are assumed to dominate below 350 nm, with both quinoxaline and bipyridine located π → π* contributing to the spectrum. At 350–450 nm it is likely that spin-allowed metal-to-ligand (5d-to-π*) charge transfers (^1MLCT) are present, with a weaker (ε < 1000 M^–1 cm^–1) shoulder feature at 450–600 nm, which is presumably due to a spin forbidden (S0 → T1) ^3MLCT absorption. […] To assess longer term stability in water, UV-vis absorption spectra of an aqueous solution (stored at 25 °C in light) of Ir-CMYC were recorded at 0, 24, 48 and 72 h (Fig. S4, ESI ^†)."}, "fish sperm DNA": {"system": "fish sperm DNA", "assay": "Circular dichroism / UV-vis titration with fish sperm DNA (multiple independent binding sites model)", "conditions": "Table S1; buffer 25 mM MOPS, 50 mM NaCl, 1 mM EDTA, 25 °C; n restricted to 3 base pairs", "procedure": "In view of the nuclear localisation of Ir-CMYC, we also considered the potential role that affinity to DNA may play. To explore DNA binding of these Ir(III) complexes, UV-vis and circular dichroism titrations were carried out in buffer (25 mM MOPS, 50 mM NaCl, 1 mM EDTA) at 25 °C (Fig. S6, ESI ^†). To quantify the affinity of Ir-PYR for fish sperm DNA, titration curves at 400 and 493 nm were extracted from the circular dichroism data (Fig. 6). Similarly, for Ir-CMYC, titration curves at 373 and 493 nm were extracted from the circular dichroism data. The binding data were analysed globally (Table S1 ^†) in terms of the multiple independent binding sites model, explicitly taking into account the dilution of the iridium complex during the titration.[28] […]\nMOPS buffer was prepared by dissolving MOPS (3-(N-morpholino)propanesulfonic acid, CAS[1132-61-2]), NaCl, and EDTA (ethylenediaminetetraacetic acid disodium salt dihydrate, CAS[6381-92-6]) (all obtained from Fisher and used as supplied) in deionised water (Elga Purelab Flex), adjusting the pH to 7.0 using a NaOH solution (pH of the buffer was determined using a Hanna Instruments pH210 microprocessor pH meter with a VWR simple junction universal combined pH/reference electrode) and making up the solution to 0.5 litre. […]"}, "[4]": {"assay": "Freeze-thaw stability of DMSO stock solutions", "format": "physicochemical", "conditions": "10 mM stock in DMSO stored at –20 °C"}},
  "note": "Entries after “also recorded” stand apart in the source; their conditions may differ.",
  "data": [
    {"sequence": "PAAKRVKLD [Ir-CMYC, NLS peptide … functionalised at N-terminus with cyclometalated iridium(III) quinoxaline/bipyridine complex]", "values": [
      {"measurement": "uptake / staining at 1–5 μM", "setting": "human fibroblast cells [1]; 1–5 μM, 18 h, confocal microscopy", "value": "No uptake or staining"},
      {"measurement": "concentration giving good cell uptake and nuclear localisation", "setting": "human fibroblast cells [1]; 18–24 h incubation, confocal, co-localisation with Hoechst 33342, n = 2", "value": "80 to 100", "unit": "µM"},
      {"measurement": "staining at 20–50 μM", "setting": "human fibroblast cells [1]; 20–50 μM, 18 h, confocal microscopy", "value": "weak punctate staining"},
      {"measurement": "cytotoxicity", "setting": "Human fibroblasts; 5–100 μM, 18 h incubation, resazurin", "value": "No cytotoxicity was observed; also recorded: essentially non-toxic"},
      {"measurement": "toxicity: changes in cellular morphology or mitochondrial activity", "setting": "Human fibroblasts; 24 hours after incubation, resazurin cell death assay", "value": "no (or minimal) toxicity"},
      {"measurement": "red emission in cells after immunocytochemistry procedure which permeabilises the cell membrane", "setting": "human fibroblast cells [2]", "value": "no longer evident"},
      {"measurement": "UV-vis absorption spectra at 0, 24, 48 and 72 h (chemical stability in water)", "setting": "[3]; aqueous solution stored at 25 °C in light, read-out UV-vis absorption", "value": "superimposable"},
      {"measurement": "solubility in water", "setting": "[3]; inferred from superimposable UV-vis spectra of aqueous solution over 72 h, 25 °C", "value": "excellent solubility"},
      {"measurement": "K (fitted equilibrium constant, binding to FS DNA)", "setting": "fish sperm DNA", "value": "4.5 ± 1.0 103 M-1"},
      {"measurement": "effect of 3 freeze–thaw cycles on compound signal", "setting": "[4]", "value": "did not appear to reduce the compound signal"}
    ]}
  ]
}
